Read-outs that look alike come from different tables or passages of the source. Blank lines part the entries; values can stand above or below the molecule they belong to.
Experiments:
[1] = target: T1, baculovirus-expressed ALK (Homo sapiens, UniProt Q9UM73); test: ALK Kinase Assay (ELISA-type, time-resolved fluorescence); type: biochemical
T1 construct: host or cells: baculovirus expression system
How it was run: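 Substrate coating: phospholipase C-γ, 10 μg/mL in TBS. Kinase step: 30 ng/ml ALK, 15 min, 37° C. Detection and analysis: Eu-N1 PT66 antibody, with IC50 fitted as a sigmoidal variable-slope dose-response curve.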

[2] = target: T2, c-Met (cytoplasmic domain) (Homo sapiens, UniProt P08581); test: c-Met Kinase Assay (same methods as for ALK, with modifications); type: biochemical
T2 construct: 10 ng/mL c-Met (cytoplasmic domain, Invitrogen Corporation #PV3143); purchased Invitrogen Corporation PV3143
How it was run: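 Wells were coated with 10 μg/mL phospholipase C-γ substrate in TBS, and reactions were started with 10 ng/mL c-Met cytoplasmic domain and run at 37° C for 15 minutes. Phosphorylated product was detected with Eu-N1-labeled PT66 antibody. IC50 values came from sigmoidal variable-slope fits of percent inhibition versus log compound concentration.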

[3] = ALK kinase inhibition, 1 μM ATP (Km level), read-out: ALK Activity
[4] = c-Met kinase inhibition, 1 μM ATP (Km level), read-out: cMet Activity
[5] = 1 μM ATP (Km level), 30 ng/ml ALK, 37° C., 15 minutes, read-out: ALK Activity (ALK kinase inhibition, IC50 class)
[6] = 1 μM ATP (Km level), 10 ng/mL c-Met, read-out: cMet Activity (c-Met kinase inhibition, IC50 class)
[7] = 1 μM ATP (Km level), read-out: ALK Activity (ALK Kinase Inhibition, IC50)
[8] = 1 μM ATP (Km level), read-out: cMet Activity (c-Met Kinase Inhibition, IC50)
[9] = ALK kinase inhibition, 1 μM ATP, read-out: ALK Activity
[10] = c-Met kinase inhibition, 1 μM ATP, read-out: cMet Activity

T1 sequence (Q9UM73 19-1620): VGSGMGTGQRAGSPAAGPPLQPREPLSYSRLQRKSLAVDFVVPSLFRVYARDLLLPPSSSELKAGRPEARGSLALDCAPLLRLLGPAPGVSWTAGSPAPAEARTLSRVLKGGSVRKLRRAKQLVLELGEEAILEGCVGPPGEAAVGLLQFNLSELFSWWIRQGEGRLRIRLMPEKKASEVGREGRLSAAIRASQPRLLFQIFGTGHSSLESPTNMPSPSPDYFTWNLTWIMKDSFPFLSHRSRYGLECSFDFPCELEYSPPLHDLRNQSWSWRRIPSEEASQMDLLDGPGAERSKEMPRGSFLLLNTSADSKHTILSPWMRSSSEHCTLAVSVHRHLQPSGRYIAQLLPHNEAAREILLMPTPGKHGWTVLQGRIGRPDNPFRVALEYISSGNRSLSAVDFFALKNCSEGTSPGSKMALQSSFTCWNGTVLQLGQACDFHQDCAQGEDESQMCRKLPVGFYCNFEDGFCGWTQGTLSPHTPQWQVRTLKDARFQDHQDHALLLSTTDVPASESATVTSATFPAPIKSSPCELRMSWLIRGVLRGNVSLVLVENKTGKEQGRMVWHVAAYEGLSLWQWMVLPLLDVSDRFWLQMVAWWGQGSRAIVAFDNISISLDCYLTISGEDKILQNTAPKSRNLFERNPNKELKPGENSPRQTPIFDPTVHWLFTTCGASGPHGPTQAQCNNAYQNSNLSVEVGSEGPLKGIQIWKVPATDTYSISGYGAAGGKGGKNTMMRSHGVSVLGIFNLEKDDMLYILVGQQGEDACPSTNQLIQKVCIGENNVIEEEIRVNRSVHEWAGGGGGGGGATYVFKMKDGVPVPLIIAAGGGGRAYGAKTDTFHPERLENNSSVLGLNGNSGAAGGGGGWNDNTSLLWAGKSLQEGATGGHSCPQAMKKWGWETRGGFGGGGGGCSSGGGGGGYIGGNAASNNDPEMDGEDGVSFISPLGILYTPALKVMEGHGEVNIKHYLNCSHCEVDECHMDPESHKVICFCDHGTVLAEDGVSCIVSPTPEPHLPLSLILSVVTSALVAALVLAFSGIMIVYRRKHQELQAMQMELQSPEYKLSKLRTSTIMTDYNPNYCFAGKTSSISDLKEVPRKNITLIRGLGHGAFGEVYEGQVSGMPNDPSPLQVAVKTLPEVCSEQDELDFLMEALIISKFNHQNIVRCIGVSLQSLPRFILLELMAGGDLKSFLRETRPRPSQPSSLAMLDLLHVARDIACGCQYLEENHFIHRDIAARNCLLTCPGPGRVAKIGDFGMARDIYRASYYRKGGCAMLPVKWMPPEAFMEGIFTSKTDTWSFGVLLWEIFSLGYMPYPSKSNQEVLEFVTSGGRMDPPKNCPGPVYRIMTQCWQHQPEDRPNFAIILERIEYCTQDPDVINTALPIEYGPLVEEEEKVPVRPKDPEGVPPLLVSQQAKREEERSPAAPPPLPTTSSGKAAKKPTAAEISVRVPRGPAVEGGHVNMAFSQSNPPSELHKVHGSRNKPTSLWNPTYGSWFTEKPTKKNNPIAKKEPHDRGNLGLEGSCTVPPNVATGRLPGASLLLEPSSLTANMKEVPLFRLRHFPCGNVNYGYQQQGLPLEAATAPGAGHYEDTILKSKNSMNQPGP
T2 sequence (P08581 956-1390 limits assumed): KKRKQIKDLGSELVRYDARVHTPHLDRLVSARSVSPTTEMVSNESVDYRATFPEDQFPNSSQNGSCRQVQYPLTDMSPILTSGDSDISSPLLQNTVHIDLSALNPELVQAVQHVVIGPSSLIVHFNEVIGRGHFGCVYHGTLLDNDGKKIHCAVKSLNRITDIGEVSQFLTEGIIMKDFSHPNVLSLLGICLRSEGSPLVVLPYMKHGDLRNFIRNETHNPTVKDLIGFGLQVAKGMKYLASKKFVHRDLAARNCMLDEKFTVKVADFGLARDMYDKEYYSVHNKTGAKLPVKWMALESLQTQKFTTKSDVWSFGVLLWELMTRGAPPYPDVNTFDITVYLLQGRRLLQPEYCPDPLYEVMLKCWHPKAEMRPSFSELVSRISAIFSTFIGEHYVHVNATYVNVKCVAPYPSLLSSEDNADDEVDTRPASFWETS

IC50 [1, 3]: < 100 nM
IC50 [2, 4]: < 100 nM
Structure (SMILES): CNC(=O)c1ccccc1Nc1nc(Nc2ccc3c(c2)CCN(C(C)C)CC3)ncc1Cl [Example 47, 2-[5-Chloro-2-(3-isopropyl-2,3,4,5-tetrahydro-1H-benzo[d]azepin-7-ylamino)-pyrimidin-4-ylamino]-N-methyl-benzamide]

IC50 [1, 5]: < 100 nM
IC50 [2, 6]: 1000 to 10000 nM
Structure (SMILES): CCN1C(=O)[C@@H](N(C)C)CCc2c1ccc(Nc1ncc(Cl)c(N[C@H]3[C@@H](C(N)=O)[C@@H]4C=C[C@H]3C4)n1)c2OC (single isomer, unassigned) [Example 1347]

IC50 [1, 7]: < 100 nM
IC50 [2, 8]: 100 to 1000 nM
Structure (SMILES): COCCN1CCOc2ccc(Nc3ncc(Cl)c(N[C@@H]4CCCC[C@H]4NS(C)(=O)=O)n3)cc2C1 [Example 711, N-((1R,2R)-2-{5-Chloro-2-[4-(2-methoxy-ethyl)-2,3,4,5-tetrahydro-benzo[f][1,4]oxazepin-7-ylamino]-pyrimidin-4-ylamino}-cyclohexyl)methanesulfonamide]

IC50 [1, 7]: < 100 nM
IC50 [2, 8]: 1000 to 10000 nM
Structure (SMILES): COc1cc2c(cc1Nc1ncc(Cl)c(Nc3ccccc3S(=O)(=O)N(C)C)n1)CCN(CC1COCCO1)CC2 (stereo not drawn) [Example 637, 2-[5-Chloro-2-(3-[1,4]dioxan-2-ylmethyl-8-methoxy-2,3,4,5-tetrahydro-1H-benzo[d]azepin-7-ylamino)-pyrimidin-4-ylamino]-N,N-dimethyl-benzenesulfonamide]

IC50 [1, 9]: 100 to 1000 nM
IC50 [2, 10]: < 100 nM
Structure (SMILES): CCN1CCN(CC(=O)OCCOC)C(=O)c2ccc(Nc3ncc(Cl)c(Nc4c(F)cccc4C(=O)NC)n3)cc21 [Example 1458, {8-[5-Chloro-4-(2-fluoro-6-methylcarbamoyl-phenylamino)-pyrimidin-2-ylamino]-1-ethyl-5-oxo-1,2,3,5-tetrahydro-benzo[e][1,4]diazepin-4-yl}-acetic acid 2-methoxy-ethyl ester]

IC50 [1, 3]: < 100 nM
IC50 [2, 4]: < 100 nM
Structure (SMILES): CNC(=O)c1cccc(F)c1Nc1nc(Nc2ccc3c(c2)CCCC(=O)N3CCOC)ncc1Cl [Example 356, 2-{5-Chloro-2-[1-(2-methoxy-ethyl)-2-oxo-2,3,4,5-tetrahydro-1H-benzo[b]azepin-7-ylamino]-pyrimidin-4-ylamino}-3-fluoro-N-methyl-benzamide]

IC50 [1, 7]: < 100 nM
IC50 [2, 8]: > 10000 nM
Structure (SMILES): COCCN(C)C1CCc2ccc(Nc3ncc(Cl)c(N[C@@H]4CCCC[C@H]4NS(C)(=O)=O)n3)c(OC)c2CC1 (stereo partly drawn) [Example 702, N-[(1R,2R)-2-(5-Chloro-2-{1-methoxy-7-[(2-methoxy-ethyl)-methyl-amino]-6,7,8,9-tetrahydro-5H-benzocyclohepten-2-ylamino}-pyrimidin-4-ylamino)-cyclohexyl]-methanesulfonamide]

IC50 [1, 3]: < 100 nM
IC50 [2, 4]: < 100 nM
Structure (SMILES): C#CCN1CCN(C)c2cc(Nc3ncc(Cl)c(Nc4ccccc4C(=O)NC)n3)ccc2C1 [Example 487, 2-[5-Chloro-2-(1-methyl-4-prop-2-ynyl-2,3,4,5-tetrahydro-1H-benzo[e][1,4]diazepin-8-ylamino)-pyrimidin-4-ylamino]-N-methyl-benzamide]

IC50 [1, 9]: < 100 nM
IC50 [2, 10]: 1000 to 10000 nM
Structure (SMILES): CCN([C@@H]1CCCC[C@H]1Nc1nc(Nc2ccc3c(c2)C(C)(C)CCC(=O)N3)ncc1Cl)S(C)(=O)=O [Example 1675, N-{(1R,2R)-2-[5-Chloro-2-(5,5-dimethyl-2-oxo-2,3,4,5-tetrahydro-1H-benzo[b]azepin-7-ylamino)-pyrimidin-4-ylamino]-cyclohexyl}-N-ethyl-methanesulfonamide]

IC50 [1, 9]: < 100 nM
IC50 [2, 10]: < 100 nM
Structure (SMILES): CCNC(=O)c1cccc(F)c1Nc1nc(Nc2ccc3c(c2)NC(=O)CCC3(C)C)ncc1Cl [Example 1575, 2-[5-Chloro-2-(5,5-dimethyl-2-oxo-2,3,4,5-tetrahydro-1H-benzo[b]azepin-8-ylamino)-pyrimidin-4-ylamino]-N-ethyl-3-fluoro-benzamide]

IC50 [1, 7]: < 100 nM
IC50 [2, 8]: > 10000 nM
Structure (SMILES): COCCNC1CCc2cc(Nc3ncc(Cl)c(N[C@@H]4CCCC[C@H]4NS(C)(=O)=O)n3)c(OC)cc2CC1 (stereo partly drawn) [Example 896, N-((1R,2R)-2-{5-Chloro-2-[3-methoxy-7-(2-methoxy-ethylamino)-6,7,8,9-tetrahydro-5H-benzocyclohepten-2-ylamino]-pyrimidin-4-ylamino}-cyclohexyl)-methanesulfonamide]

Structure (SMILES): CNS(=O)(=O)c1ccccc1Nc1nc(Nc2ccc3c(c2)C2CCC3CN(S(C)(=O)=O)C2)ncc1Cl (stereo not drawn) [Example 286, 2-[5-Chloro-2-(10-methanesulfonyl-10-aza-tricyclo[6.3.2.0*2,7*]trideca-2,4,6-trien-4-ylamino)-pyrimidin-4-ylamino]-N-methyl-benzenesulfonamide]
IC50 [1, 3]: < 100 nM
IC50 [2, 4]: < 100 nM

IC50 [1, 9]: < 100 nM
IC50 [2, 10]: < 100 nM
Structure (SMILES): CNC(=O)c1cccc(Cl)c1Nc1nc(Nc2ccc3c(c2)CCC(=O)NC3(C)C)ncc1Cl [Example 1828, 3-Chloro-2-(5-chloro-2-(1,1-dimethyl-3-oxo-2,3,4,5-tetrahydro-1H-benzo[c]azepin-7-ylamino)pyrimidin-4-ylamino)-N-methylbenzamide]

IC50 [1, 5]: < 100 nM
IC50 [2, 6]: < 100 nM
Structure (SMILES): CCCNC(=O)c1ccccc1Nc1nc(Nc2ccc3c(c2)CCCC(=O)N3)ncc1Cl [Example 1024, 2-[5-Chloro-2-(2-oxo-2,3,4,5-tetrahydro-1H-benzo[b]azepin-7-ylamino)-pyrimidin-4-ylamino]-N-propyl-benzamide]

IC50 [1, 5]: < 100 nM
IC50 [2, 6]: 1000 to 10000 nM
Structure (SMILES): COc1cc2c(cc1Nc1ncc(Cl)c(Nc3ccccc3S(=O)(=O)N(C)C)n1)CCN(CC(=O)N1CCCC1)CC2 [Example 1157, 2-{5-Chloro-2-[8-methoxy-3-(2-oxo-2-pyrrolidin-1-yl-ethyl)-2,3,4,5-tetrahydro-1H-benzo[d]azepin-7-ylamino]-pyrimidin-4-ylamino}-N,N-dimethyl-benzenesulfonamide]

IC50 [1, 7]: 100 to 1000 nM
IC50 [2, 8]: 1000 to 10000 nM
Structure (SMILES): CS(=O)(=O)N[C@@H]1CCCC[C@H]1Nc1nc(Nc2ccc3c(c2)CN(CCO)CCS3)ncc1Cl [Example 525, N-((1R,2R)-2-{-5-Chloro-2-[8-(2-hydroxy-ethyl)-6,7,8,9-tetrahydro-5-thia-8-azabenzo-cyclohepten-2-ylamino]-pyrimidin-4-ylamino}cyclohexyl)-methanesulfonamide]

IC50 [1, 7]: 100 to 1000 nM
IC50 [2, 8]: 100 to 1000 nM
Structure (SMILES): COCCN1CCc2ccc(Nc3ncc(Cl)c(Nc4cc(C(N)=O)n[nH]4)n3)cc2CC1 [Example 954, 5-{5-Chloro-2-[3-(2-methoxy-ethyl)-2,3,4,5-tetrahydro-1H-3-benzazepin-7-ylamino]-pyrimidin-4-ylamino}-1H-pyrazole-3-carboxylic acid amide]

IC50 [1, 5]: < 100 nM
IC50 [2, 6]: > 10000 nM
Structure (SMILES): COCC(COC)N1CCc2cc(Nc3ncc(Cl)c(Nc4ccc(C(N)=O)cc4OC)n3)c(OC)cc2CC1 [Example 1153, 4-{5-Chloro-2-[8-methoxy-3-(2-methoxy-1-methoxymethyl-ethyl)-2,3,4,5-tetrahydro-1H-benzo[d]azepin-7-ylamino]-pyrimidin-4-ylamino}-3-methoxy-benzamide]

IC50 [1, 9]: 100 to 1000 nM
IC50 [2, 10]: < 100 nM
Structure (SMILES): C#CCNC(=O)c1cccc(F)c1Nc1nc(Nc2ccc3c(c2)N(C(=O)CN)CCCC3(C)C)ncc1Cl [Example 1619, 2-{2-[1-(2-Amino-acetyl)-5,5-dimethyl-2,3,4,5-tetrahydro-1H-benzo[b]azepin-8-ylamino]-5-chloro-pyrimidin-4-ylamino}-3-fluoro-N-prop-2-ynyl-benzamide]

Structure (SMILES): CS(=O)(=O)N[C@@H]1CCCC[C@H]1Nc1nc(Nc2ccc3c(c2)C2CCC3CNC2)ncc1Cl (stereo partly drawn) [Example 293, N-{(1R,2R)-2-[2-(10-Aza-tricyclo[6.3.2.0*2,7*]trideca-2,4,6-trien-4-ylamino)-5-chloro-pyrimidin-4-ylamino]-cyclohexyl}-methanesulfonamide]
IC50 [1, 3]: < 100 nM
IC50 [2, 4]: 1000 to 10000 nM

IC50 [1, 3]: < 100 nM
IC50 [2, 4]: 100 to 1000 nM
Structure (SMILES): CC(=O)OCCN1CCN(C)c2cc(Nc3ncc(Cl)c(Nc4ccccc4NS(C)(=O)=O)n3)ccc2C1 [Example 473, Acetic acid 2-{8-[5-chloro-4-(2-methanesulfonylamino-phenylamino)-pyrimidin-2-ylamino]-1-methyl-1,2,3,5-tetrahydro-benzo[e][1,4]diazepin-4-yl}-ethyl ester]

IC50 [1, 9]: < 100 nM
IC50 [2, 10]: 1000 to 10000 nM
Structure (SMILES): COc1cc(N2CCOCC2)ccc1Nc1nc(Nc2ccc3c(c2)N(CCN2CCCC2)CCCC3(C)C)ncc1Cl [Example 1610, 5-Chloro-N*2*-[5,5-dimethyl-1-(2-pyrrolidin-1-yl-ethyl)-2,3,4,5-tetrahydro-1H-benzo[b]azepin-8-yl]-N*4*-(2-methoxy-4-morpholin-4-yl-phenyl)-pyrimidine-2,4-diamine]

IC50 [1, 5]: < 100 nM
IC50 [2, 6]: 100 to 1000 nM
Structure (SMILES): CN(C)S(=O)(=O)c1ccccc1Nc1nc(Nc2ccc3c(c2)CCC(N2CCOCC2)CC3)ncc1Cl (stereo not drawn) [Example 1032, 2-[5-Chloro-2-(7-morpholin-4-yl-6,7,8,9-tetrahydro-5H-benzocyclohepten-2-ylamino)-pyrimidin-4-ylamino]-N,N-dimethyl-benzenesulfonamide]

IC50 [1, 3]: < 100 nM
IC50 [2, 4]: 1000 to 10000 nM
Structure (SMILES): CS(=O)(=O)N[C@@H]1CCCC[C@H]1Nc1nc(Nc2ccc3c(c2)CNC(=O)NC3)ncc1Cl [Example 226, N-{(1R,2R)-2-[5-Chloro-2-(3-oxo-2,3,4,5-tetrahydro-1H-benzo[e][1,3]diazepin-7-ylamino)-pyrimidin-4-ylamino]-cyclohexyl}-methanesulfonamide]
